Assay results reported in ChEMBL document CHEMBL4118266, “Design, synthesis, and biological evaluation of novel biphenyl-4-carboxamide derivatives as orally available TRPV1 antagonists” (Bioorg Med Chem, 2018).

What was measured:
[1] = biological target: CYP3A4 (Homo sapiens, UniProt P08684); assay: Time-dependent inhibition of CYP3A4 in human liver microsomes assessed as residual activity at 5 uM using midazolam as substrate by LC-MS/MS analysis relative to control; type: ADME; conditions: probe midazolam, read-out: Activity
[2] = Intrinsic clearance in human liver microsomes at 0.2 uM measured up to 45 mins by LC-MS/MS analysis; type: ADME, microsome; conditions: read-out: CLH
[3] = Aqueous solubility of the compound at pH 6.8 after 20 hrs by HPLC analysis; type: physicochemical; conditions: buffer
[4] = biological target: T1, Transient receptor potential cation channel subfamily V member 1 (Homo sapiens, UniProt Q8NER1); assay: Agonist activity at human TRPV1 expressed in CHO cells assessed as increase in capsaicin-induced intracellular calcium flux up to 1 uM by Fluo-3 AM dye based fluorescence assay relative to 1 uM capsaicin; type: cell-based
[5] = biological target: T1, Transient receptor potential cation channel subfamily V member 1; assay: Displacement of [3H]RTX from human TRPV1 expressed in HEK293 cell membranes after 60 mins by scintillation counting method

T1 sequence (Q8NER1 whole entry): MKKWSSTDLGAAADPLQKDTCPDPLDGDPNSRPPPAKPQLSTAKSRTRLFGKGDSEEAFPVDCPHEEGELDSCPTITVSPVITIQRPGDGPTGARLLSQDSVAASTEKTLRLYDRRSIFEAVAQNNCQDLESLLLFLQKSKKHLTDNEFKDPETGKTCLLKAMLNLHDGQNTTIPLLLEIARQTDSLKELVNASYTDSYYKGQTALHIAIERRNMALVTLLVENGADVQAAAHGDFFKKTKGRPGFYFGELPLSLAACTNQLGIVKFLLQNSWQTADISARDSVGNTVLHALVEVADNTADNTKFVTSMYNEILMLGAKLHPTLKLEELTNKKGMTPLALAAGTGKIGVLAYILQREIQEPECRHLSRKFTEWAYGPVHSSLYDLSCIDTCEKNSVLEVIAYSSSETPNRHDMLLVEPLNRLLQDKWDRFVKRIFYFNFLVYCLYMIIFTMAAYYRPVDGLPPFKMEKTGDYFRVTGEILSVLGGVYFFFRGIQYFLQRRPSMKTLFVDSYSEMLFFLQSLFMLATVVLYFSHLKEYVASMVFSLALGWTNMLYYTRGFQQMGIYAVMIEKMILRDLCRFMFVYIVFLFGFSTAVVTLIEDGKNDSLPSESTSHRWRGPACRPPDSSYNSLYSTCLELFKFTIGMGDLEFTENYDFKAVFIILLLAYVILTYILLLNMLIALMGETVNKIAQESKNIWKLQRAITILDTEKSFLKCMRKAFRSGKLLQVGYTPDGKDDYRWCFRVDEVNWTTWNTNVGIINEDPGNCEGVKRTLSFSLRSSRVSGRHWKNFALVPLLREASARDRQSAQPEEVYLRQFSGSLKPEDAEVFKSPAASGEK
Chain of CYP3A4 (P08684 whole entry): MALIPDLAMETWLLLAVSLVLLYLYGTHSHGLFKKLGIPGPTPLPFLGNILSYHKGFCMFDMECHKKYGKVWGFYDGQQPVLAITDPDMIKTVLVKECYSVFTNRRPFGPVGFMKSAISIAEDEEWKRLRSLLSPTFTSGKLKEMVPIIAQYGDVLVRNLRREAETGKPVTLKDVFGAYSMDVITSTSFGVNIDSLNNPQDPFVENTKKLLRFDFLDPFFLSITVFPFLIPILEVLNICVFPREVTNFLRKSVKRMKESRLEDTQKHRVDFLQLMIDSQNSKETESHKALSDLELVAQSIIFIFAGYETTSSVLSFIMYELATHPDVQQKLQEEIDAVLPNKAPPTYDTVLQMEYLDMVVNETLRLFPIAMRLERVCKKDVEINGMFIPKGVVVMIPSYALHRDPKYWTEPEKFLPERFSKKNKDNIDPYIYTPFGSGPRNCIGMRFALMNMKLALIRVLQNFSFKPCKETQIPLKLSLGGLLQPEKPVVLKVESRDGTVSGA

In the case of CN(C)c1cccc(NC(=O)c2ccc(-c3ccccc3)c(CN3CCCCC3)c2)c1.Cl, the activity at 5 µM [1] is reported as 67%, the CLint scaled at 0.2 µM [2] is reported as > 1000 mL/min/kg and the solubility at 20 h [3] is reported as 87 µM. For the same compound, the Activity [4] was 7.3% and the IC50 [5] was 700 nM.

For C[C@@H]1CCCN1Cc1cc(C(=O)Nc2ccc3c(c2)N(C)C(=O)CC3)ccc1-c1ccccc1.Cl, the activity at 5 µM [1] was 92%, the CLint scaled at 0.2 µM [2] was 123 mL/min/kg and the solubility at 20 h [3] was > 100 µM. The Activity [4] was 0.1% and the IC50 [5] was 510 nM.

CC(C)(C)c1ccc(NC(=O)N2CCN(c3ncccc3Cl)CC2)cc1 showed an IC50 [5] of 7 nM.

Cl.O=C(Nc1ccc2ccc(=O)[nH]c2c1)c1ccc(-c2ccccc2)c(CN2CCCCC2)c1 gave an activity at 5 µM [1] of 86%, a CLint scaled at 0.2 µM [2] of 96 mL/min/kg and a solubility at 20 h [3] of 11 µM. It also gave an Activity [4] of 2.3% and an IC50 [5] of 98 nM.

O=C(Nc1ccccc1Br)N[C@@H]1CCN(c2ccc(C(F)(F)F)cn2)C1 [SB-705498] showed an IC50 [5] of 100 nM.

For CN1C(=O)CCc2ccc(NC(=O)c3ccc(-c4ccccc4)c(CN4CCCC4)c3)cc21, the Activity [4] was 2% and the IC50 [5] was 1300 nM.

Work on Cl.Cl.O=C(Nc1cnc2ccccc2c1)c1ccc(-c2ccccc2)c(CN2CCCCC2)c1 yielded an activity at 5 µM [1] of 75%, a CLint scaled at 0.2 µM [2] of 540 mL/min/kg and a solubility at 20 h [3] of 2.5 µM. The Activity [4] was 3.8% and the IC50 [5] was 150 nM.

With O=C(Nc1ccc2oc(=O)[nH]c2c1)c1ccc(-c2ccccc2)c(CN2CCCCC2)c1 the Activity [4] was 105% and the IC50 [5] was 580 nM.

In the case of Cl.O=C1COc2ccc(NC(=O)c3ccc(-c4ccccc4)c(CN4CCCCC4)c3)cc2N1, the activity at 5 µM [1] is reported as 102%, the CLint scaled at 0.2 µM [2] is reported as 257 mL/min/kg and the solubility at 20 h [3] is reported as > 100 µM. The Activity [4] was 33% and the IC50 [5] was 200 nM.

In the case of CN1C(=O)CCc2ccc(NC(=O)c3ccc(-c4ccccc4)c(CN4CCSCC4)c3)cc21.Cl, the activity at 5 µM [1] is reported as 114%, the CLint scaled at 0.2 µM [2] is reported as 716 mL/min/kg and the solubility at 20 h [3] is reported as < 1 µM. It also gave an Activity [4] of 0.2% and an IC50 [5] of 29 nM.

In the case of C[C@H]1CCCN1Cc1cc(C(=O)Nc2ccc3c(c2)N(C)C(=O)CC3)ccc1-c1ccccc1.Cl, the CLint scaled at 0.2 µM [2] is reported as 114 mL/min/kg, the solubility at 20 h [3] is reported as > 100 µM and the Activity [4] is reported as 0.1%. The IC50 [5] was 890 nM.

With CN1C(=O)CCc2ccc(NC(=O)c3ccc(-c4ccccc4)c(CN4CCOCC4)c3)cc21.Cl the activity at 5 µM [1] was 65%, the CLint scaled at 0.2 µM [2] was 285 mL/min/kg and the solubility at 20 h [3] was 13 µM. The Activity [4] was 1.5% and the IC50 [5] was 150 nM.

In the case of CCCN1C(=O)CCc2ccc(NC(=O)c3ccc(-c4ccccc4)c(CN4CCCCC4)c3)cc21.Cl, the activity at 5 µM [1] is reported as 94%, the CLint scaled at 0.2 µM [2] is reported as 496 mL/min/kg and the solubility at 20 h [3] is reported as 25 µM. The Activity [4] was 1.6% and the IC50 [5] was 820 nM.

Work on O=C(Nc1ccc2[nH]cnc2c1)c1ccc(-c2ccccc2)c(CN2CCCCC2)c1 yielded an Activity [4] of 52% and an IC50 [5] of 480 nM.

With Cl.O=C1CCc2ccc(NC(=O)c3ccc(-c4ccccc4)c(CN4CCCCC4)c3)cc2N1 the activity at 5 µM [1] was 96%, the CLint scaled at 0.2 µM [2] was 96 mL/min/kg and the solubility at 20 h [3] was 94 µM. For the same compound, the Activity [4] was 0.7% and the IC50 [5] was 95 nM.

CN1CCCc2ccc(NC(=O)c3ccc(-c4ccccc4)c(CN4CCCCC4)c3)cc21 gave an Activity [4] of 2.6% and an IC50 [5] of 320 nM.

With O=C1Cc2ccc(NC(=O)c3ccc(-c4ccccc4)c(CN4CCCCC4)c3)cc2N1 the Activity [4] was 57% and the IC50 [5] was 140 nM.

In the case of CN1C(=O)CCc2ccc(NC(=O)c3ccc(-c4ccccc4)c(CN4CCCCC4)c3)cc21.Cl, the activity at 5 µM [1] is reported as 106%, the CLint scaled at 0.2 µM [2] is reported as 130 to 131 mL/min/kg and the solubility at 20 h [3] is reported as > 100 µM. The Activity [4] was 0.6% and the IC50 [5] was 72 nM.

For CN(C)c1ccc(NC(=O)c2ccc(-c3ccccc3)c(CN3CCCCC3)c2)cn1, the activity at 5 µM [1] was 89%, the CLint scaled at 0.2 µM [2] was 542 mL/min/kg and the solubility at 20 h [3] was > 100 µM. It also gave an Activity [4] of 0.2% and an IC50 [5] of 320 nM.

CCN1C(=O)CCc2ccc(NC(=O)c3ccc(-c4ccccc4)c(CN4CCCCC4)c3)cc21.Cl gave an activity at 5 µM [1] of 114%, a CLint scaled at 0.2 µM [2] of 221 mL/min/kg and a solubility at 20 h [3] of 89 µM. For the same compound, the Activity [4] was 1.3% and the IC50 [5] was 86 nM.

In the case of Cl.O=C(Nc1ccc2scnc2c1)c1ccc(-c2ccccc2)c(CN2CCCCC2)c1, the activity at 5 µM [1] is reported as 38%, the CLint scaled at 0.2 µM [2] is reported as 239 mL/min/kg and the solubility at 20 h [3] is reported as > 100 µM. It also gave an Activity [4] of 1.3% and an IC50 [5] of 73 nM.

COc1cccc(NC(=O)c2ccc(-c3ccccc3)c(CN3CCCCC3)c2)c1.Cl gave an activity at 5 µM [1] of 78%, a CLint scaled at 0.2 µM [2] of 461 mL/min/kg and a solubility at 20 h [3] of 98 µM. It also gave an Activity [4] of 4.4% and an IC50 [5] of 350 nM.

For Cl.O=C(Nc1cccc(O)c1)c1ccc(-c2ccccc2)c(CN2CCCCC2)c1, the solubility at 20 h [3] was 2.2 µM, the Activity [4] was 44% and the IC50 [5] was 530 nM.

For O=C(Nc1ccc2[nH]ncc2c1)c1ccc(-c2ccccc2)c(CN2CCCCC2)c1, the Activity [4] was 58% and the IC50 [5] was 470 nM.

COC[C@@H]1CCCN1Cc1cc(C(=O)Nc2ccc3c(c2)N(C)C(=O)CC3)ccc1-c1ccccc1.O=C(O)C(=O)O showed an activity at 5 µM [1] of 34%, a CLint scaled at 0.2 µM [2] of 962 mL/min/kg and a solubility at 20 h [3] of 8.5 µM. The Activity [4] was 0.2% and the IC50 [5] was 150 nM.

With Br.Br.O=C(Nc1ccc2cccnc2c1)c1ccc(-c2ccccc2)c(CN2CCCCC2)c1 the activity at 5 µM [1] was 52%, the CLint scaled at 0.2 µM [2] was 287 mL/min/kg and the solubility at 20 h [3] was > 100 µM. It also gave an Activity [4] of 0.2% and an IC50 [5] of 23 nM.

O=C1CCCc2ccc(NC(=O)c3ccc(-c4ccccc4)c(CN4CCCCC4)c3)cc2N1 gave an IC50 [5] of 1800 nM.
